Source: patent US8609610B2, “Inhibitors of the trypsin-like site of the proteasome and methods of use thereof” (Trustees of Dartmouth College, priority 2011, dated 2013)

Tests used:
[1] = target: β2 (trypsin-like site) of proteasome in HEK-293T cells (Homo sapiens, UniProt P49720+Q99436); test: Competition assay in living HEK-293T cells with activity-based probe; assay type: cell-based
Method: Proteasome inhibition in MM cells was measured with luminogenic substrates using PROTEASOMEGLO assay (Promega). […] An aliquot of culture was pelleted and medium was removed and replaced with PBS. The resulting cell suspension was mixed with luminogenic substrates in the manufacturer-provided lysis/assay buffer. After 3 minutes mixing on an orbital shaker, the plate was incubated in the dark for additional 17 minutes, followed by the measurements of the luminescence, performed in triplicate for each substrate/data point. Data were analyzed as for purified proteasomes. […] Cells (1×10^6 per well of a 6-well plate) were incubated with the inhibitors for 4 hours at 37° C. and this was followed by a 2 hour incubation with 5 μM BODIPY-TMR-epoxomicin. Subsequently, the medium was removed and the cells were washed with PBS and harvested. […] The supernatant was collected and the protein concentration was determined by the Bradford assay, and used to normalize gel loading. The samples were analysed by SDS-PAGE and fluorescent densitometry as described for competition experiment in cell lysates. IC50 values were calculated from three independent experiments using […] PRISM software.
Human embryonic kidney cells (some 1×10^6) were cultured in 6-well plates in DMEM containing 10% fetal calf serum, 10 units/mL penicillin and 10 μg/mL streptomycin in a 7% CO2 humidified incubator at 37° C. overnight. Part of the medium was taken and to this was added the appropriate inhibitor in DMSO (1 μL of a 1,000× stock solution), after which the medium was added to the cells. The cells were incubated with the inhibitors for 4 hours at 37° C. and this was followed by addition of MV151 (1 μL of a 5 mM stock solution in DMSO) and incubation for 2 hours at 37° C. Next, the medium was removed and the cells were washed with PBS and harvested. […] The supernatant was collected and the protein concentration was determined by the Bradford assay. All samples were normalized to the same protein concentration with lysis buffer.

β5 proteasome subunit = target: T1, β5 proteasome subunit (Homo sapiens, UniProt P20618+P28074); test: Competition assay in HEK-293T cell lysate with MV151; assay type: biochemical; details: HEK-293T lysate, 5 μM
T1 construct: Whole cell lysates of HEK-293T or EL-4 cells were made by sonication; endogenous in cells; host or cells: HEK-293T
Method: Whole cell lysates of HEK-293T or EL-4 cells were made by sonication in 3 volumes of lysis buffer containing 50 mM Tris pH 7.5, 1 mM DTT, 5 mM MgCl2, 250 mM sucrose, 2 mM ATP, 0.025% digitonin. Protein concentration was determined by the Bradford assay. Cell lysates (13.5 μg total protein for HEK lysates and 9 μg total protein for EL-4 lysates) were exposed to the inhibitors for 1 hour at 37° C. prior to incubation with MV151 (0.5 μM) or BODIPY-TMR-epoxomicin (0.5 μM) for an additional 1 hour at 37° C. Reaction mixtures were boiled with Laemmli's buffer containing (3-mercaptoethanol for 5 minutes before being resolved by 12.5% SDS-PAGE. In-gel detection of residual proteasome activity was performed in the wet gel slabs directly on the TYPHOON Variable Mode Imager (Amersham Biosciences) using the Cy3/Tamra settings (λex 532 nm, λem 560 nm) to detect MV151, BODIPY-TMR-epoxomicin and Cy2/Fam settings (λex 488 nm, λem 520 nm) to detect compounds 39 and 59.
The inhibition potential of the inhibitors for each of the catalytically active subunits was assessed in competition assays employing extracts of human embryonic kidney cells (HEK-293T) and mouse lymphoma cells (EL-4) in combination with the fluorescent broad spectrum proteasome probe MV151 (Verdoes, et al. (2006) Chem. Biol. 13:1217-1226). Competitive inhibition of a proteasome active site is reflected by the disappearance of the corresponding band on a gel.

[2] = test system: trypsin-like site of 26S proteasomes; test: Inhibition of purified 26S proteasomes, substrate Ac-RLR-amc; assay type: biochemical, rabbit
β2 proteasome subunit = target: T2, β2 proteasome subunit (Homo sapiens, UniProt P49720+Q99436); test: Competition assay in HEK-293T cell lysate with MV151; assay type: biochemical; details: HEK-293T lysate, 5 μM
T2 construct: Whole cell lysates of HEK-293T or EL-4 cells were made by sonication; endogenous in cells; host or cells: HEK-293T

[3] = test system: proteasome catalytic subunits in NCI-H929 cells; test: Isolation and identification of polypeptides modified by az-NC-002; assay type: cell-based; details: BioP ligation, streptavidin isolation, mass-spectrometry
Method: Cells were treated with the activity-based site probe overnight and lysed with 50 mM Tris-HCl, 10% glycerol, 5 mM MgCl2, 0.5 mM EDTA, 0.5% CHAPS, 1 mM ATP. […] After on-beads trypsin digestion, samples were analyzed by LC-MS/MS (Florea, et al. (2010) Chem. Biol. 17:795-801). IRDYE 800 CW-conjugated streptavidin was purchased from Rockland, hsc71 antibodies from Abcam (Cat #19136), and β2 antibodies from Abgent (Cat #AP2914b).
To further confirm that NC-002, NC-012 and NC-022 were specific for the trypsin-like sites and that the biological activity was not due to off-target effects, az-NC-002 was synthesized as an NC-002-derived, activity-based probe. […] One major az-NC-002-specific streptavidin-reactive band was detected. […] A weaker band of slightly lower mobility, matching the mobility of β2i band, was also detected. […] A number of endogenously biotinylated proteins in the 70-100 kDa region were also detected and can serve as a loading control.
To further confirm that the probe covalently modified β2 and β2i subunits, proteasome was denatured after BioP modification, biotinylated polypeptides were isolated on streptavidin beads, and bound polypeptides were identified by mass-spectrometry after on-beads trypsin digestion. […] No peptides derived from other catalytic subunits were detected.

cathepsin D = target: T3, cathepsin D (Homo sapiens, UniProt P07339); test: Cathepsin D activity assay (SENSOLYTE 520); assay type: cell-based
T3 construct: endogenous in cells
T3 sequence (P07339 65-412): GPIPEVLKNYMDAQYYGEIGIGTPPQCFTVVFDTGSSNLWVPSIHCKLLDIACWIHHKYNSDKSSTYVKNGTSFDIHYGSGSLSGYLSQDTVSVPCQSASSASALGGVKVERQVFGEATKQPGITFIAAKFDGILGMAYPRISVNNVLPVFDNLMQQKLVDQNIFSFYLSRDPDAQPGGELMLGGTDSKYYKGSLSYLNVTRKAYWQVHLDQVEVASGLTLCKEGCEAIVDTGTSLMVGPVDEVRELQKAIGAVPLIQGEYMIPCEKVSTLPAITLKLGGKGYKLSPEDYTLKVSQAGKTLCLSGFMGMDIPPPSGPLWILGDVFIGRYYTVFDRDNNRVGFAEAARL
Method: (§1) Cathepsin B, H, L, S activity was measured with pan-cathepsin substrate Z-FR-amc (Kirschke & Wiederanders (1994) Methods Enzymol. 244:500-11) in extracts of cytosol-less cells at pH 6.0 (Screen, et al. (2010) supra). Cathepsin D activity was measured in cytosol-less extracts using SENSOLYTE 520 Cathepsin D Fluorometric Assay Kit (AnaSpec). Combined cathepsin D and E activity was measured using the same kit, in which cathepsin D substrate provided with the kit was replaced with 7-Methoxycoumarin-[…](Dnp)-X′-NH2 (SEQ ID NO:10; where “X′” stand for D-Arg) internally quenched fluorogenic substrate of cathepsin D and E. In this case, pH 3.0 assay buffer used for cell extraction. All activity observed using both procedures was inhibited by more than 98% by specific inhibitor of aspartic proteases pepstatin A.

[4] = target: T4, chymotrypsin-like site of 26S proteasomes (Oryctolagus cuniculus, UniProt G1T4Q9); test: Inhibition of purified 26S proteasomes, substrate Suc-LLVY-amc; assay type: biochemical, rabbit; details: >>30 no inhibition at 30 μM, >30 inhibition between 10 and 50% at 30 μM, read-out: IC50 for sites in 26S proteasomes: Chym-L
T4 sequence (G1T4Q9 1-263): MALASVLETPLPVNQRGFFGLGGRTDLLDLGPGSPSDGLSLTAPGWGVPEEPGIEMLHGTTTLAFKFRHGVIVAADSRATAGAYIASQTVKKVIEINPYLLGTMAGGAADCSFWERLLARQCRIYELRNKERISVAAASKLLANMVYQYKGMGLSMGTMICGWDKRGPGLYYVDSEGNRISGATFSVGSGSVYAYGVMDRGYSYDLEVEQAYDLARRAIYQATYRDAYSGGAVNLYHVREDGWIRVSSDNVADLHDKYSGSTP
Method: (§2) 26S proteasomes were purified from rabbit muscle using known methods (Screen, et al. (2010) supra). […] NOVEX Bis-Tris gels (12%, Invitrogen) with MOPS running buffer were used for electrophoretic separation of catalytic subunits modified by active-site probes. Inhibition of active sites inside cells was assayed using luminescent PROTEASOMEGLO assay (Promega; Moravec, et al. (2009) Anal. Biochem. 387:294-302) according to known methods (Britton, et al. (2009) supra).

[5] = target: caspase-like site of 26S proteasomes (Oryctolagus cuniculus, UniProt A0A5F9DQW2); test: Inhibition of purified 26S proteasomes, substrate Ac-nLPnLD-amc; assay type: biochemical, rabbit; details: >>30 no inhibition at 30 μM, >30 inhibition between 10 and 50% at 30 μM, read-out: IC50 for sites in 26S proteasomes: Casp-L
Sequence of caspase-like site of 26S proteasomes (A0A5F9DQW2 1-212): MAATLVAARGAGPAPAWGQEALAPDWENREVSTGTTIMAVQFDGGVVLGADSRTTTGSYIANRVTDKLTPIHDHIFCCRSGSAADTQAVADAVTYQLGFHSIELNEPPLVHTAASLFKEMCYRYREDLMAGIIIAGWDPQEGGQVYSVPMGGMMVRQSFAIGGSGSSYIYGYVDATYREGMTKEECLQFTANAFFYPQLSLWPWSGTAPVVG
Method: as §2

[6] = test system: Caspase-3/7 activity in NCI-H929 and MM1.R cell lines; test: APO-ONE caspase-3/7 assay; assay type: cell-based; details: combination of NC-001 and NC-002
Method: RPMI-8226 and NCI-H929 cells were cultured in RPMI-1640 supplemented with 10% fetal bovine serum, penicillin, streptomycin, and plasmocin in 5% CO2 humidified incubator. HEK-293T cells were cultured in DMEM containing 10% fetal calf serum, 10 units/mL penicillin, and 10 μg/mL streptomycin in a 7% CO2 humidified incubator. Viability of multiple myeloma cells was measured with ALAMAR BLUE mitochondrial dye conversion assay. Viability of peripheral blood mononuclear cells (PBMNCs) was measured using CELL TITER-GLO luminescent cell viability assay (Promega), which is based on quantification of ATP present in the cells. Caspase-3/7 activity was measured using APO-ONE 3/7 homogeneous assay (Promega).

[7] = target: T5, trypsin-like sites (β2) of proteasome in MM cells (Homo sapiens, UniProt Q99436); test: PROTEASOMEGLO assay of proteasome inhibition in MM cells; assay type: cell-based; details: NCI-H929 cells treated overnight
T5 construct: endogenous in cells; host or cells: NCI-H929, RPMI-8226 and other MM cell lines
T5 sequence (Q99436 44-277): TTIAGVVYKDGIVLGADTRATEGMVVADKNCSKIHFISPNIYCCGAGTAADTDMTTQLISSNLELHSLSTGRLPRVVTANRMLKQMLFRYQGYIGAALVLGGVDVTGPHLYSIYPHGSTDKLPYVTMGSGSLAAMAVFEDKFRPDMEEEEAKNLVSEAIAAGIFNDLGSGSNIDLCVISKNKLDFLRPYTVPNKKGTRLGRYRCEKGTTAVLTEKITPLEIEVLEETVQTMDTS

[8] = target: T6, trypsin-like site of 26S proteasomes (Oryctolagus cuniculus, UniProt G1SWK8); test: Inhibition of purified 26S proteasomes, substrate Ac-RLR-amc; assay type: biochemical, rabbit; details: 26S proteasomes from rabbit muscles
T6 construct: IC50 for sites in 26S proteasomes: Tr-L; other: purified 26S proteasomes; other: 26S proteasomes from rabbit muscles
T6 sequence (G1SWK8 1-271): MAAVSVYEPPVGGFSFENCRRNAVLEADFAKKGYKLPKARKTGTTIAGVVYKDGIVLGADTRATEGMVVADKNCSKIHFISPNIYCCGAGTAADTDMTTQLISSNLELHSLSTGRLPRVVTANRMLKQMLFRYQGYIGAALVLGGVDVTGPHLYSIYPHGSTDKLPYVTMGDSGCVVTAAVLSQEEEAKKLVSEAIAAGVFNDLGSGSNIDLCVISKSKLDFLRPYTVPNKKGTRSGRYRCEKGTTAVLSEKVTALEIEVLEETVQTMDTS

Cathepsin B, H, L, S = test: Cathepsin activity with pan-cathepsin substrate Z-FR-amc; assay type: cell-based
Method: as §1

β2 and β2i sites = test: MV-151 label-competition in extracts of RPMI-8226 MM cells; assay type: biochemical; details: extracts of RPMI-8226 cells, MV-151 probe
Source text: Multiple myeloma cells express constitutive proteasomes and immunoproteasomes, and substrates used for the measurement of activity were cleaved by both. To determine whether there were any differences in inhibition of constitutive proteasomes or immunoproteasomes by NC-002, NC-012, and NC-022, the fluorescent activity-based probe MV-151 (Verdoes, et al. (2006) Chem. Biol. 13:1217-1226) was used in a label-competition experiment. Extracts of RPMI-8226 MM cells (which express more immunoproteasomes than NCI-H929 cells) were treated first with the NC inhibitors and then with the MV-151 probe. This was followed by fractionation on SDS-PAGE to separate proteasome subunits and imaging to reveal those subunits labeled by the probe (i.e., unmodified by the inhibitors).

“BODIPY-triazole-Phe-Leu-Leu-Phe (4-CH2NH2)-VS [Compound 39]” was tested, and the “inhibition of β2 and β5 in living cells” value ([1]; 5 μM) was “seemed not to be competed away at all”, the “inhibition of proteasome activity in living cells” value ([1]; 50 μM) was “not all proteasome activity was silenced” and the “inhibition of β5 in cell lysate” value (β5 proteasome subunit) was “all β2 and β5 proteasomal activity was inhibited”. The “inhibition of trypsin- and chymotrypsin-like activities” value [2] was “equipotently inhibited trypsin- and chymotrypsin-like activities”, the “specificity after attachment of BODIPY-FL dye” value [2] was “complete loss of specificity” and the “inhibition of β2 in cell lysate” value (β2 proteasome subunit) was “all β2 and β5 proteasomal activity was inhibited”.
For `CC(C)C[C@H](NC(=O)CN=[N+]=[N-])C(=O)N[C@@H](CC(C)C)C(=O)N[C@@H](CCCNC(=N)N)C(=O)[C@@]1(C)CO1` [az-NC-002, Az-Gly-Leu-Leu-Arg-ek], the “subunits modified by the probe” value [3] was “trypsin-like site-specific activity-based probe” and the “inhibition of cathepsin D” value (cathepsin D) was “no significant inhibition”.
For `CC(=O)N[C@@H](CC(C)C)C(=O)N[C@@H](CC(C)C)C(=O)N[C@@H](CCCNC(=N)N)C(=O)[C@@]1(C)CO1` [NC-002, Ac-Leu-Leu-Arg-ek], the IC50 [4] was greater than 30 µM, the IC50 [5] was greater than 30 µM and the “caspase activity (apoptosis)” value [6] was “did not cause any significant increase in caspase activity”. The “inhibition of trypsin-like activity in live cells” value [7] was “sub-micromolar concentrations”, the “IC50 (Chym-L)/IC50 (Tr-L)” value ([2]; rabbit 26S proteasomes) was greater than 30 and the “proteasome inhibitory potential on purified 26S proteasomes” value [8] was “potent and specific inhibitors of the trypsin-like sites”. For the same compound, the “inhibition of lysosomal cysteine proteases” value (Cathepsin B, H, L, S) was “did not inhibit” and the “inhibition of constitutive (β2) versus immunoproteasome (β2i) trypsin-like sites” value (β2 and β2i sites) was “equipotent inhibitors of the trypsin-like sites of constitutive and immunoproteasomes”.
